Experiments:
HIV = conditions: HIV-infected, ART-treated humanized mice, cited from earlier work
J-Lat clone 10.6 cells = assay: J-Lat HIV latency reversal assay (GFP expression); type: cell-based, Human; conditions: J-Lat 10.6; for HIV latency reversal time course in words: over 48 hours
Source text: Having shown that our lead compounds bind cell-free PKC isoforms, enter cells, translocate PKC-GFP fusion proteins, and activate NF-κB transcription factors, we next set out to determine whether our analogs were capable of reversing HIV from latency. We performed in vitro assays using T lymphocyte J-Lat clone 10.6, which contains a latent near full-length replication-incompetent integrated HIV DNA genome ([72]). J-Lat 10.6 lacks two viral genes, env and nef, which encode for the envelope protein and an accessory protein, respectively, and thus cannot initiate a spreading HIV infection. The integrated HIV provirus also encodes a GFP reporter gene, allowing latency reversal to be measured by quantification of GFP expression (fig. S1). […] In this latency reversal assay, we quantified GFP expression 48 hours after compound addition and observed bryostatin 1 to be maximally effective at concentrations of 40 nM or higher with latency reversal in 12% of cells (Fig. 8). Given the efficacy of bryostatin 1 as an LRA ([73], [74]), EBC-46 and many of its analogs tested in this J-Lat assay induced latency reversal in >90% of cells. […] SUW427, an esterase-releasable prodrug of EBC-46, also performed similarly to EBC-46 with a maximum efficacy of latency reversal in >90% of cells at a dose of 250 nM. […] The gradual release of EBC-46 from its prodrug form provides an alternative mode of administration that avoids the bolus effect associated with rapid drug administration ([17]). […] This is consistent with its lack of activity in the NF-κB activation assay and its design as a negative control as it is structurally similar to EBC-46 but unable to bind to the C1 domain of PKC at the concentrations used in this assay as it lacks a complete pharmacophore.
HIV latency reversal in-vitro assay
Human T Lymphocyte J-Lat Full Length Cell Line 10.6 (cat #9849) was obtained through the NIH HIV Reagent Program, Division of AIDS, NIAID, NIH and was contributed to the NIH HIV Reagent Program by Dr. Eric Verdin (70). J-Lat 10.6 cells were plated at 5 × 10^5 cells in 180 μL of RF10 media consisting of RPMI media supplemented with 1% Penicillin/Streptomycin and 10% Fetal Bovine Serum (FBS) in 96 -well U -bottom plates. J -Lat 10.6 cells were then stimulated for 48 hr by adding 20 μL of newly designed and synthesized tigilanol tiglate analogs, PKC modulators (bryostatin 1) as our positive control or med ia only (mock) as our negative control. Our negative control was RF10 media as the tigilanol tiglate analogs were freshly diluted with RF10 prior to plating. The final volume was 200 μL per well. Experiments were performed in three independent biological replicates, each completed in technical duplicates (n = 6). After 48 hr stimulation, 96 - well U -bottom plates were centrifuged at 296 RCF for 7 minutes to pellet cells, which were resusp ended in 200 μL of freshly prepared 2% paraformaldehyde (PFA) in PBS. GF P expression was measured 24 -hours post -fixation using the FITC channel on a LSR Fortessa (BD Biosciences) flow cytometer. Data analysis was conducted with FlowJo software version 10.8.1.

NF-κB pathway = assay: NF-κB activation assay, A549 cells with SEAP reporter; type: cell-based, Human; conditions: 24 hours after dosing, A549 cells
Source text: As a high-throughput method of screening compounds for their ability to get into cells and activate immunological pathways related to HIV latency reversal ([46], [70]), we conducted an NF-κB reporter assay using A549 cells stably integrated with a secreted embryonic alkaline phosphatase reporter under the control of a promoter fused to five NF-κB binding sites (Fig. 7B) ([48], [70], [71]).
Human A549-Dual™ Cells supplied by InvivoGen (Cat. code a549d-nfis) and CHO-K1 cells were passaged when about 90% confluency was reached (approximately every three days). With each passage, media was aspirated from the cell layer, which was then washed with PBS. Following aspiration of the PBS, cells were detached from the culture flask with 0.25% GibcoTM Trypsin-EDTA and transferred to a 50 mL conical, which was volumed up with complete pre-warmed DMEM (4.5 g/L glucose, 10% FBS, and 1% Pen-Strep-Glutamine (100 X, 50 mg/mL)) or Ham's F-12K (Kaighn's) Medium supplemented with 10% FBS and 1% Pen-Strep (100 X, 50 mg/mL).
This conical was spun down at 1800 rpm for 3 minutes, the supernatant was removed, and cells were resuspended in their respective fresh, pre-warmed media. To count cells, 10 μL of resuspended cells were added to a sterile microcentrifuge tube and mixed with 10 μL of trypan blue after which 10 μL of the mixture was pipetted into a Countess chamber slide. A Countess™ 3 Automated Cell Counter was subsequently utilized to determine cell viability and concentration.
1 x 10^6 cells were seeded with each passage into a T75 culture flask, and cells were incubated at […]
Human A549 lung carcinoma cells (InvivoGen Cat. code a549d-nfis), stably integrated with a secreted embryonic alkaline phosphatase (SEAP) reporter, allow for the activity of the NF-κB pathway to be monitored. The SEAP reporter is under control of the interferon β (IFN-β) minimal promoter, which is fused to five NF-κB binding sites.
5 × 10^4 A549 cells were plated on Corning® 96 Well TC-Treated Microplates (CLS3595) in 180 μl of pre-warmed DMEM (4.5 g/L glucose, 10% heat-inactivated FBS (30 min at 56 ℃), and 1% Pen-Strep-Glutamine (100 X, 50 mg/mL)). Note that if cells were grown in media containing FBS that is not heat-inactivated, media will contain alkaline phosphatase. In this case, all supernatant must thoroughly be aspirated from the cell pellet obtained after centrifugation before resuspending cells in media containing heat inactivated FBS for plating. Following incubation at 37 °C in 5% CO2 for approximately 24 hours to allow for cell adherence onto the 96 well plate, 1.8 μL of each compound dissolved in DMSO was added in quadruplicate to their respective wells to achieve a final compound concentration of 1500 nM, 500 nM, or 50 nM. 1.8 μL of DMSO was added to wells as negative controls while wells treated with EBC-46 served as positive controls. 24 hours following compound addition, 180 μL of QUANTI-BlueTM Solution (InvivoGen Cat. code rep-qbs)- medium containing QB buffer and QB Reagent for detection and quantification of alkaline phosphatase- were added into wells on a new clear flat-bottom 96-well plate. 20 μL of supernatant of either SEAP-expressing cells incubated with compound or SEAP-expressing cells incubated with DMSO only were added to the wells in the new 96-well plate containing QUANTI-BlueTM Solution. Supernatant and QUANTI-BlueTM Solution were incubated at 37 °C in 5% CO2 for approximately an hour and a half. Following incubation, optical density (OD) at 630 nm was measured for each well using a BioTek Synergy H1 microplate reader under normal read speed and with a delay of 100 msec.

latent HIV = conditions: cited from earlier work

C=C1C[C@H]2C[C@]3(O)O[C@H](C[C@@H](O)CC(=O)O[C@@H](CO)C[C@@H]4C/C(=C\C(=O)OC)[C@H](OC(=O)CCCCCCC)[C@@](O)(O4)C(C)(C)/C=C/[C@@H](C1)O2)C[C@H](OC(C)=O)C3(C)C [SUW133]
animals not rebounding in vivo after ART discontinuation (HIV; with natural killer cells as kill arm): 40% | effect on HIV rebound in words (HIV; administered alone): capable of delaying rebound when administered alone

CC=C(C)C(=O)OC1C(C)C2(O)C(C3OC3(COC(=O)OCc3ccc(OC(=O)OC)cc3)C(O)C3(O)C(=O)C(C)=CC32)C2C(C)(C)C12OC(=O)C(C)CC (centres unmarked) [SUW427]
HIV latency reversal time course in words (J-Lat clone 10.6 cells; 100 nM): clear delayed HIV latency reversal | maximal latency reversal, % of cells (J-Lat clone 10.6 cells; 250 nM, 48 hours): > 90 % of cells | HIV latency reversal time course in words (J-Lat clone 10.6 cells; 250 nM): almost converged with its parent compound at all time points and reached maximal latency reversal | NF-κB activation (optical density, 630 nm) (NF-κB pathway; 50 nM): 0.33 optical density, 630 nm | NF-κB activation (optical density, 630 nm) (NF-κB pathway; 500 nM): 0.64 optical density, 630 nm

CCC/C=C/C=C/C(=O)O[C@H]1/C(=C/C(=O)OC)C[C@H]2C[C@H]([C@@H](C)O)OC(=O)C[C@H](O)C[C@@H]3C[C@H](OC(C)=O)C(C)(C)[C@](O)(C[C@@H]4C/C(=C/C(=O)OC)C[C@H](/C=C/C(C)(C)[C@]1(O)O2)O4)O3 [bryostatin 1, reference compound]
latency reversal, % of cells (J-Lat clone 10.6 cells; maximally effective at 40 nM or higher, 48 hours): 12 % of cells | NF-κB activation (optical density, 630 nm) (NF-κB pathway; 50 nM): 0.47 optical density, 630 nm | NF-κB activation (optical density, 630 nm) (NF-κB pathway; 500 nM): 0.41 optical density, 630 nm

prostratin-C13-naphthyl acetate
potency as an LRA relative to prostratin (latent HIV): > 130 fold
